In patent US8952024B2, “Herbicidal pyrimidone derivatives” (E I du Pont de Nemours and Company, priority 2009, dated 2015):

How the values were obtained:
Assay in all cases: Test B pre-/postemergence plant response
Type in all cases: in vivo
[1] = system: giant foxtail (Setaria faberii)
Summary of the method: (§1)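 Visual injury, 0–100 scale (100 = complete control), rated against controls after 13 to 15 days in greenhouse. Pre-emergence: seeds in loam/sand soil, treated at planting. Post-emergence: 1- to 4-leaf plants (2 to 18 cm) in peat/vermiculite medium. Compounds formulated in non-phytotoxic solvent with surfactant.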

[2] = system: green foxtail (Setaria viridis)
Summary of the method: as §1

[3] = system: large crabgrass (Digitaria sanguinalis)
Summary of the method: as §1

kochia (Kochia scoparia) = conditions: Postemergence
Summary of the method: as §1

[4] = system: velvetleaf (Abutilon theophrasti)
Summary of the method: as §1

[5] = system: pigweed (Amaranthus retroflexus)
Summary of the method: as §1

[6] = system: johnsongrass (Sorghum halepense)
Summary of the method: as §1

[7] = system: downy bromegrass (Bromus tectorum)
Summary of the method: as §1

[8] = system: wheat (Triticum aestivum)
Summary of the method: as §1

[9] = system: lambsquarters (Chenopodium album)
Summary of the method: as §1

[10] = system: woolly cupgrass (Eriochloa villosa)
Summary of the method: as §1

[11] = system: goosegrass (Eleusine indica)
Summary of the method: as §1

[12] = system: yellow nutsedge (Cyperus esculentus)
Summary of the method: as §1

[13] = Postemergence, 31 g ai/ha, 0 to 100 scale (0 no effect, 100 complete control)
[14] = Postemergence, 62 g ai/ha, scale 0 to 100 (0 no effect, 100 complete control)
[15] = Postemergence, 125 g ai/ha, scale 0 to 100 (0 no effect, 100 complete control)
[16] = Postemergence, 250 g ai/ha, scale 0 to 100 (0 no effect, 100 complete control), 13 to 15 days
[17] = Preemergence, 31 g ai/ha, scale 0 to 100 (0 no effect, 100 complete control)
[18] = Preemergence, 62 g ai/ha, scale 0 to 100 (0 no effect, 100 complete control)
[19] = Preemergence, 125 g ai/ha, scale 0 to 100, 0 no effect, 100 complete control
[20] = Preemergence, 250 g ai/ha, 0 to 100 scale

Structure (SMILES): COc1ccc(-n2c(-c3ccccc3)ncc(C(=O)C3=C(O)CCCC3=O)c2=O)cc1OC [Compound 218]
- Plant response rating, Foxtail, Giant [1, 13]: 40
- Plant response rating, Foxtail, Giant [1, 14]: 55
- Plant response rating, Foxtail, Giant [1, 15]: 65
- Plant response rating, Foxtail, Giant [1, 16]: 85
- Plant response rating, Foxtail, Giant [1, 17]: 0
- Plant response rating, Foxtail, Giant [1, 18]: 0
- Plant response rating, Foxtail, Giant [1, 19]: 20
- Foxtail, Giant plant response rating [1, 20]: 85
- Plant response rating, Foxtail, Green [2, 13]: 60
- Plant response rating, Foxtail, Green [2, 14]: 85
- Plant response rating, Foxtail, Green [2, 15]: 90
- Plant response rating, Foxtail, Green [2, 16]: 90
- Plant response rating, Foxtail, Green [2, 17]: 0
- Plant response rating, Foxtail, Green [2, 18]: 30
- Plant response rating, Foxtail, Green [2, 19]: 80
- Foxtail, Green plant response rating [2, 20]: 100
- Plant response rating, Crabgrass, Large [3, 13]: 40
- Plant response rating, Crabgrass, Large [3, 14]: 45
- Plant response rating, Crabgrass, Large [3, 15]: 70
- Plant response rating, Crabgrass, Large [3, 16]: 90
- Plant response rating, Crabgrass, Large [3, 17]: 0
- Plant response rating, Crabgrass, Large [3, 18]: 20
- Plant response rating, Crabgrass, Large [3, 19]: 65
- Crabgrass, Large plant response rating [3, 20]: 98
- Plant response rating, Kochia (kochia (Kochia scoparia); 31 g ai/ha, 0 to 100 scale (0 no effect, 100 complete control)): 35
- Plant response rating, Kochia (kochia (Kochia scoparia); 62 g ai/ha, scale 0 to 100 (0 no effect, 100 complete control)): 85
- Plant response rating, Kochia (kochia (Kochia scoparia); 125 g ai/ha, scale 0 to 100 (0 no effect, 100 complete control)): 100
- Plant response rating, Kochia (kochia (Kochia scoparia); 250 g ai/ha, scale 0 to 100 (0 no effect, 100 complete control), 13 to 15 days): 100
- Plant response rating, Velvetleaf [4, 13]: 85
- Plant response rating, Velvetleaf [4, 14]: 100
- Plant response rating, Velvetleaf [4, 16]: 100
- Plant response rating, Velvetleaf [4, 17]: 80
- Plant response rating, Velvetleaf [4, 18]: 85
- Plant response rating, Velvetleaf [4, 19]: 90
- Velvetleaf plant response rating [4, 20]: 100
- Plant response rating, Pigweed [5, 13]: 100
- Plant response rating, Pigweed [5, 14]: 100
- Plant response rating, Pigweed [5, 16]: 100
- Plant response rating, Pigweed [5, 17]: 100
- Plant response rating, Pigweed [5, 18]: 100
- Plant response rating, Pigweed [5, 19]: 100
- Pigweed plant response rating [5, 20]: 100
- Plant response rating, Johnsongrass [6, 15]: 55
- Plant response rating, Johnsongrass [6, 16]: 80
- Plant response rating, Johnsongrass [6, 17]: 0
- Plant response rating, Johnsongrass [6, 18]: 0
- Plant response rating, Johnsongrass [6, 19]: 20
- Johnsongrass plant response rating [6, 20]: 45
- Plant response rating, Bromegrass, Downy [7, 13]: 5
- Plant response rating, Bromegrass, Downy [7, 14]: 15
- Plant response rating, Bromegrass, Downy [7, 15]: 20
- Plant response rating, Bromegrass, Downy [7, 16]: 30
- Plant response rating, Bromegrass, Downy [7, 17]: 0
- Plant response rating, Bromegrass, Downy [7, 18]: 0
- Plant response rating, Bromegrass, Downy [7, 19]: 0
- Bromegrass, Downy plant response rating [7, 20]: 0
- Plant response rating, Wheat [8, 13]: 0
- Plant response rating, Wheat [8, 14]: 0
- Plant response rating, Wheat [8, 16]: 0
- Plant response rating, Wheat [8, 17]: 0
- Plant response rating, Wheat [8, 18]: 0
- Plant response rating, Wheat [8, 19]: 0
- Wheat plant response rating [8, 20]: 0
- Plant response rating, Lambsquarters [9, 13]: 98
- Plant response rating, Lambsquarters [9, 14]: 98
- Plant response rating, Lambsquarters [9, 15]: 100
- Plant response rating, Lambsquarters [9, 16]: 100
- Plant response rating, Lambsquarters [9, 17]: 100
- Plant response rating, Lambsquarters [9, 18]: 100
- Plant response rating, Lambsquarters [9, 19]: 100
- Lambsquarters plant response rating [9, 20]: 100
- Plant response rating, Cupgrass, Woolly [10, 13]: 40
- Plant response rating, Cupgrass, Woolly [10, 14]: 45
- Plant response rating, Cupgrass, Woolly [10, 15]: 60
- Plant response rating, Cupgrass, Woolly [10, 16]: 80
- Plant response rating, Cupgrass, Woolly [10, 17]: 0
- Plant response rating, Cupgrass, Woolly [10, 18]: 0
- Plant response rating, Cupgrass, Woolly [10, 19]: 65
- Cupgrass, Woolly plant response rating [10, 20]: 85
- Plant response rating, Goosegrass [11, 13]: 0
- Plant response rating, Goosegrass [11, 14]: 10
- Plant response rating, Goosegrass [11, 15]: 15
- Plant response rating, Goosegrass [11, 16]: 35
- Plant response rating, Goosegrass [11, 17]: 10
- Plant response rating, Goosegrass [11, 18]: 60
- Plant response rating, Goosegrass [11, 19]: 98
- Goosegrass plant response rating [11, 20]: 98
- Plant response rating, Nutsedge, Yellow [12, 13]: 10
- Plant response rating, Nutsedge, Yellow [12, 14]: 15
- Plant response rating, Nutsedge, Yellow [12, 15]: 15
- Plant response rating, Nutsedge, Yellow [12, 16]: 60
- Plant response rating, Nutsedge, Yellow [12, 17]: 45
- Plant response rating, Nutsedge, Yellow [12, 18]: 75
- Plant response rating, Nutsedge, Yellow [12, 19]: 90
- Nutsedge, Yellow plant response rating [12, 20]: 90
